The target of this test is T1, GAK (Homo sapiens, UniProt O14976).
T1 sequence (O14976 1-1311): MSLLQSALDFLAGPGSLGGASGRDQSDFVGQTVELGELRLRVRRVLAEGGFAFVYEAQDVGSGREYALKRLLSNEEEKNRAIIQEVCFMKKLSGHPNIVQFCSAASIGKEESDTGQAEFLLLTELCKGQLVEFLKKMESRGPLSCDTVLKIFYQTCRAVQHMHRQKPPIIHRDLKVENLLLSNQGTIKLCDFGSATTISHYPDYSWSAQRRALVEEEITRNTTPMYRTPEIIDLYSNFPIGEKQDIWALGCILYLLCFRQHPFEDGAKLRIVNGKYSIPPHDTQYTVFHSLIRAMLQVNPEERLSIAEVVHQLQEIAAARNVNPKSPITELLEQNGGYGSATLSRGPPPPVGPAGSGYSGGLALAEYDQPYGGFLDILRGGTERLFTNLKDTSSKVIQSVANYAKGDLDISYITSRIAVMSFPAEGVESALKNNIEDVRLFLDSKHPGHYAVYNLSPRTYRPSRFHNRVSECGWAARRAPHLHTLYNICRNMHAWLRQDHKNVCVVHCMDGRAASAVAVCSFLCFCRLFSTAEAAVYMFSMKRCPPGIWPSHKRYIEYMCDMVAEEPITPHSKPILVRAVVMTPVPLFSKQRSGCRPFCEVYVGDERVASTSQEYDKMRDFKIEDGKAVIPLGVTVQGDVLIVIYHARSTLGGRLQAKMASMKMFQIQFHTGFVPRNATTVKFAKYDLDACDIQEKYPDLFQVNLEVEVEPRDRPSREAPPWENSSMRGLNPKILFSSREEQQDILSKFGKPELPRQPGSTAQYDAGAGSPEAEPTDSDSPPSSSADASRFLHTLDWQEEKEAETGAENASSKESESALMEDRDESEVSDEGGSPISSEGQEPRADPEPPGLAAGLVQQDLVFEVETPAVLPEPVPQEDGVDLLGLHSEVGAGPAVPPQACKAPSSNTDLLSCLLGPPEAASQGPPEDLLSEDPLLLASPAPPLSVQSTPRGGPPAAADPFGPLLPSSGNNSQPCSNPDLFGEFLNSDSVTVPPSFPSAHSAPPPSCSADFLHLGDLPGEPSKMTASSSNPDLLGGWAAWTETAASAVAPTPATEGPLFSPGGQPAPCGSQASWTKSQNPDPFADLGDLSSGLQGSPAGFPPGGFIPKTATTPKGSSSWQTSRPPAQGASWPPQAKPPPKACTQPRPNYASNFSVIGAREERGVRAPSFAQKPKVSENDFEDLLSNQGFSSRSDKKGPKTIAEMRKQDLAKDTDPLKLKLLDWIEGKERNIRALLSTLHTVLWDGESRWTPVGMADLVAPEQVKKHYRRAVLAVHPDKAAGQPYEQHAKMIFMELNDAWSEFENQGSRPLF
Kind of test: MIB dose-dependent kinase inhibition assay. The test is classed as binding. The conditions noted are these: read-out: IC50 in the MIB assay, H23 cell lysate, overnight 4°C.

Some results are limits rather than exact numbers.

For `C=CC(=O)Nc1ccccc1Nc1nc(Nc2ccc(N3CCN(C)CC3)cc2)ncc1Cl` [SM1-71], the IC50 – broadly, the concentration that inhibits the measured activity by half – is below 10 nM.

These data come from paper PMC6634314 (Cell chemical biology, 2019).
